# Measured values reported in patent US7414061B2, “Aryl-isoxazol-4-yl-imidazole derivatives” (Hoffmann-La Roche Inc., priority 2005, dated 2008).
# Molecular target: T1, GABA A receptor α5β3γ2 (hα5) (Homo sapiens, UniProt P18507+P31644)
# T1 construct: expressed in transfected cells; host or cells: HEK293 (transiently transfected), membrane preparation
# Test: [3H]flumazenil competition binding assay, human GABA A α5β3γ2
# Conditions: displacement of [3H]flumazenil (0.5 nM) from HEK293 cell membranes expressing α5β3γ2; means of two determinations; read-out: Ki[nM] hα5
# Description: The affinity of compounds at GABA A receptor subtypes was measured by competition for [3H]flumazenil (85 Ci/mmol; Roche) binding to HEK293 cells expressing rat (stably transfected) or human (transiently transfected) receptors of composition α1β3γ2, α2β3γ2, α3β3γ2 and α5β3γ2.
# Cell pellets were suspended in Krebs-tris buffer (4.8 mM KCl, 1.2 mM CaCl2, 1.2 mM MgCl2, 120 mM NaCl, 15 mM Tris; pH 7.5; binding assay buffer), homogenized by polytron for ca. 20 sec on ice and centrifuged for 60 min at 4° C. (50000 g; Sorvall, rotor: SM24=20000 rpm). The cell pellets were resuspended in Krebs-tris buffer and homogenized by polytron for ca. 15 sec on ice. Protein was measured (Bradford method, Bio-Rad) and aliquots of 1 mL were prepared and stored at −80° C.
# Radioligand binding assays were carried out in a volume of […] (96-well plates) which contained […] of cell membranes, [3H]flumazenil at a concentration of 1 nM for α1, α2, α3 subunits and 0.5 nM for α5 subunits and the test compound in the range of […]. Nonspecific binding was defined by 10^−5 M diazepam and typically represented less than 5% of the total binding. Assays were incubated to equilibrium for 1 hour at 4° C. and harvested onto GF/C uni-filters (Packard) by filtration using a Packard harvester and washing with ice-cold wash buffer (50 mM Tris; pH 7.5). After drying, filter-retained radioactivity was detected by liquid scintillation counting. Ki values were calculated using Excel-Fit (Microsoft) and are the means of two determinations.
row,Compound,Ki [nM]
1,"Cc1onc(-c2ccccc2)c1-c1cn(-c2cccc(Cl)c2)cn1 [Example 5, 4-[1-(3-Chloro-phenyl)-1H-imidazol-4-yl]-5-methyl-3-phenyl-isoxazole]",29.1
2,"Cc1onc(-c2ccccc2)c1-c1cn(-c2ccc(C(=O)NC3CCOCC3)cc2)cn1 [Example 77, 4-[4-(5-Methyl-3-phenyl-isoxazol-4-yl)-imidazol-1-yl]-N-(tetrahydro-pyran-4-yl)-benzamide]",27.3
3,"Cc1onc(-c2ccccc2)c1-c1cn(-c2ccc(C#N)cc2)c(COCc2ccccc2)n1 [Example 65, 4-[2-Benzyloxymethyl-4-(5-methyl-3-phenyl-isoxazol-4-yl)-imidazol-1-yl]-benzonitrile]",19.1
4,"Cc1cccc(COCc2nc(-c3c(-c4ccccc4)noc3C)cn2-c2ccc([N+](=O)[O-])cc2)n1 [Example 162, 2-Methyl-6-[4-(5-methyl-3-phenyl-isoxazol-4-yl)-1-(4-nitro-phenyl)-1H-imidazol-2-ylmethoxymethyl]-pyridine]",28.2
5,"Cc1onc(-c2ccccc2)c1-c1cn(-c2ccc([N+](=O)[O-])cc2)c(COCc2ccccc2)n1 [Example 63, 4-[2-Benzyloxymethyl-1-(4-nitro-phenyl)-1H-imidazol-4-yl]-5-methyl-3-phenyl-isoxazole]",14.4
6,"Cc1onc(-c2ccc(F)cc2)c1-c1cn(-c2ccc([N+](=O)[O-])cc2)cn1 [Example 47, 3-(4-Fluoro-phenyl)-5-methyl-4-[1-(4-nitro-phenyl)-1H-imidazol-4-yl]-isoxazole]",16.6
7,"Cc1onc(-c2ccccc2)c1-c1cn(-c2ccc([N+](=O)[O-])cc2)c(COCc2ccc(C(F)(F)F)nc2)n1 [Example 164, 5-[4-(5-Methyl-3-phenyl-isoxazol-4-yl)-1-(4-nitro-phenyl)-1H-imidazol-2-ylmethoxymethyl]-2-trifluoromethyl-pyridine]",27
8,"Cc1onc(-c2ccccc2)c1-c1cn(-c2ccc([N+](=O)[O-])cc2)c(CCl)n1 [Example 148, 4-[2-Chloromethyl-1-(4-nitro-phenyl)-1H-imidazol-4-yl]-5-methyl-3-phenyl-isoxazole]",23.3
9,"Cc1onc(-c2ccccc2)c1-c1cn(-c2ccc(F)cc2)cn1 [Example 3, 4-[1-(4-Fluoro-phenyl)-1H-imidazol-4-yl]-5-methyl-3-phenyl-isoxazole]",29.6
10,"Cc1onc(-c2ccc(F)cc2)c1-c1cn(-c2ccncc2)cn1 [Example 117, 4-{4-[3-(4-Fluoro-phenyl)-5-methyl-isoxazol-4-yl]-imidazol-1-yl}-pyridine]",13.3
11,"Cc1onc(-c2ccccc2)c1-c1cn(-c2ccccn2)cn1 [Example 32, 2-[4-(5-Methyl-3-phenyl-isoxazol-4-yl)-imidazol-1-yl]-pyridine]",19.3
12,"Cc1onc(-c2ccccc2)c1-c1cn(-c2ccc([N+](=O)[O-])cc2)c(C=O)n1 [Example 149, 4-(5-Methyl-3-phenyl-isoxazol-4-yl)-1-(4-nitro-phenyl)-1H-imidazole-2-carbaldehyde]",29.9
13,"COC(=O)c1ccc(-n2cnc(-c3c(-c4ccc(F)cc4)noc3C)c2)cc1 [Example 125, 4-{4-[3-(4-Fluoro-phenyl)-5-methyl-isoxazol-4-yl]-imidazol-1-yl}-benzoic acid methyl ester]",13.6
14,"Cc1onc(-c2ccccc2)c1-c1cn(-c2ccccc2)c(COCc2ccccc2)n1 [Example 146, 4-(2-Benzyloxymethyl-1-phenyl-1H-imidazol-4-yl)-5-methyl-3-phenyl-isoxazole]",17.1
15,"Cc1onc(-c2ccc(F)cc2)c1-c1cn(-c2cccc(F)c2)cn1 [Example 119, 3-(4-Fluoro-phenyl)-4-[1-(3-fluoro-phenyl)-1H-imidazol-4-yl]-5-methyl-isoxazole]",33.7
16,"CCCc1ccc(-n2cnc(-c3c(-c4ccccc4)noc3C)c2)cc1 [Example 9, 5-Methyl-3-phenyl-4-[1-(4-propyl-phenyl)-1H-imidazol-4-yl]-isoxazole]",25.5
17,"Cc1onc(-c2ccc(F)cc2)c1-c1cn(-c2ncccn2)cn1 [Example 48, 2-{4-[3-(4-Fluoro-phenyl)-5-methyl-isoxazol-4-yl]-imidazol-1-yl}-pyrimidine]",17.6
18,"Cc1onc(-c2ccc(F)cc2)c1-c1cn(-c2ccc(C#N)cc2)cn1 [Example 116, 4-{4-[3-(4-Fluoro-phenyl)-5-methyl-isoxazol-4-yl]-imidazol-1-yl}-benzonitrile]",13.2
19,"Cc1onc(-c2ccccc2)c1-c1cn(-c2cccc(C#N)c2)cn1 [Example 17, 3-[4-(5-Methyl-3-phenyl-isoxazol-4-yl)-imidazol-1-yl]-benzonitrile]",27
20,"Cc1onc(-c2ccccc2)c1-c1cn(-c2ccc([N+](=O)[O-])cc2)c(CO)n1 [Example 147, [4-(5-Methyl-3-phenyl-isoxazol-4-yl)-1-(4-nitro-phenyl)-1H-imidazol-2-yl]-methanol]",18.1
21,"Cc1onc(-c2ccccc2)c1-c1cn(-c2cccc([N+](=O)[O-])c2)cn1 [Example 82, 5-Methyl-4-[1-(3-nitro-phenyl)-1H-imidazol-4-yl]-3-phenyl-isoxazole]",19.5
22,"Cc1onc(-c2ccccc2)c1-c1cn(-c2ccc(C(=O)NCCCN3CCOCC3)cc2)cn1 [Example 73, 4-[4-(5-Methyl-3-phenyl-isoxazol-4-yl)-imidazol-1-yl]-N-(3-morpholin-4-yl-propyl)-benzamide]",14.6

# These reach a lower Ki. Values come first.
row,Ki [nM],Compound
1,9.8,"CC(=O)c1ccc(-n2cnc(-c3c(-c4ccc(F)cc4)noc3CO)c2)cc1 [Example 140, 1-(4-{4-[3-(4-Fluoro-phenyl)-5-hydroxymethyl-isoxazol-4-yl]-imidazol-1-yl}-phenyl)-ethanone]"
2,5.4,"CC(=O)c1ccc(-n2cc(-c3c(-c4ccccc4)noc3C)nc2COCc2ccccc2)cc1 [Example 62, 1-{4-[2-Benzyloxymethyl-4-(5-methyl-3-phenyl-isoxazol-4-yl)-imidazol-1-yl]-phenyl}-ethanone]"
3,7.8,"CC(=O)c1ccc(-n2cnc(-c3c(-c4ccccc4F)noc3C)c2)cc1 [Example 36, 1-(4-{4-[3-(2-Fluoro-phenyl)-5-methyl-isoxazol-4-yl]-imidazol-1-yl}-phenyl)-ethanone]"
4,10,"C#CCNC(=O)c1ccc(-n2cnc(-c3c(-c4cccc(F)c4)noc3C)c2)cc1 [Example 97, 4-{4-[3-(3-Fluoro-phenyl)-5-methyl-isoxazol-4-yl]-imidazol-1-yl}-N-prop-2-ynyl-benzamide]"
5,11.9,"Cc1onc(-c2ccccc2)c1-c1cn(-c2ccc([N+](=O)[O-])cc2)cn1 [Example 13, 5-Methyl-4-[1-(4-nitro-phenyl)-1H-imidazol-4-yl]-3-phenyl-isoxazole]"
6,1.64,"CC(=O)c1ccc(-n2cnc(-c3c(-c4ccccc4)noc3C3CC3)c2)cc1 [Example 135, 1-{4-[4-(5-Cyclopropyl-3-phenyl-isoxazol-4-yl)-imidazol-1-yl]-phenyl}-ethanone]"
7,12.7,"CCc1onc(-c2ccc(F)cc2)c1-c1cn(-c2ccc([N+](=O)[O-])cc2)cn1 [Example 134, 5-Ethyl-3-(4-fluoro-phenyl)-4-[1-(4-nitro-phenyl)-1H-imidazol-4-yl]-isoxazole]"
8,5.1,"Cc1onc(-c2ccccc2)c1-c1cn(-c2ccc(C(=O)NC3CC3)cc2)cn1 [Example 74, N-Cyclopropyl-4-[4-(5-methyl-3-phenyl-isoxazol-4-yl)-imidazol-1-yl]-benzamide]"
9,9.5,"Cc1onc(-c2ccccc2)c1-c1cn(-c2ccc([N+](=O)[O-])cc2)c(COCc2cccnc2)n1 [Example 163, 3-[4-(5-Methyl-3-phenyl-isoxazol-4-yl)-1-(4-nitro-phenyl)-1H-imidazol-2-ylmethoxymethyl]-pyridine]"
10,1.71,"O=[N+]([O-])c1ccc(-n2cnc(-c3c(-c4ccccc4)noc3C3CC3)c2)cc1 [Example 136, 5-Cyclopropyl-4-[1-(4-nitro-phenyl)-1H-imidazol-4-yl]-3-phenyl-isoxazole]"
11,10.9,"Cc1onc(-c2ccccc2)c1-c1cn(-c2ccc(C(=O)NC3CCCC3)cc2)cn1 [Example 76, N-Cyclopentyl-4-[4-(5-methyl-3-phenyl-isoxazol-4-yl)-imidazol-1-yl]-benzamide]"
12,5.5,"CC(=O)c1ccc(-n2cnc(-c3c(-c4ccccc4)noc3C)c2)cc1 [Example 12, 1-{4-[4-(5-Methyl-3-phenyl-isoxazol-4-yl)-imidazol-1-yl]-phenyl}-ethanone]"
